This note sets out measurements from patent US11685723B2, “Antibacterial agents: O-alkyl-deuterated pyronins” (Rutgers, the State University of New Jersey, priority 2018, dated 2023).

Broadly, the IC50 is the midpoint of a concentration-inhibition curve. The term MIC denotes the lowest concentration that inhibits growth of the organism.

Series [1] in a line: Metabolic stability, mouse liver microsomes. It is filed as in vitro ADME. Particulars: CD-1 mouse liver microsomes 1 mg/ml, 1 mM NADPH, pH 7.4, 37° C. Here is the method:
(§1) Test compounds were incubated with mouse liver microsomes (CD-1; male and female pooled; 1 mg/ml) or human liver microsomes (male; 1 mg/ml) in 50 mM potassium phosphate, pH 7.4, and 1 mM NADPH at 37° C. Aliquots were removed at 0, 15, 30, 60, 90 and 120 min, and amounts of test compounds remaining were determined by LC-MS/MS. Half lives (t0.5) were calculated as t0.5=−0.693/k, where k is the slope of the linear regression of the natural logarithms of percentages of test compounds remaining vs. time.
In general terms: Liver microsomes are vesicles of endoplasmic reticulum, rich in cytochrome P450 enzymes.

Series [2] can be described thus: Metabolic stability, human liver microsomes. Particulars: human liver microsomes (male) 1 mg/ml, 1 mM NADPH, pH 7.4, 37° C. It is filed as in vitro ADME. Here is the method: as §1
The nature of series [3]: In vivo pharmacokinetics in mice (intravenous administration). Particulars: CD-1 mice, 2.5 mg/kg. How it is done: Test compounds (2.5 mg/kg; 0.1 ml of 0.625 mg/ml solution in 5% dimethylacetamide and 4% Cremophor EL in 100 mM sodium phosphate, pH 7.4) were administered to mice (CD-1; […]; n=3) by intravenous injection into a tail vein at t=0 h. Blood samples were collected by tail-vein bleed (CB 300 K2E tubes; Sarstedt) at t=0.02, 0.05, 1, 3, 5, and 8 h, and plasma concentrations of test compounds were determined by LC-MS/MS.

Series [4] has as its target E. coli RNA polymerase σ70 holoenzyme (Escherichia coli, UniProt P0A8T7+P0A8V2). The series is described as follows: Fluorescence-detected inhibition of bacterial RNA polymerase. Particulars: 75 nM E. coli RNAP holoenzyme, RiboGreen fluorescence; read-out: in vitro RNAP-inhibitory activity E. coli RNAP IC50. Type of series: biochemical. Here is the method: Fluorescence-detected RNA polymerase assays with E. coli RNA polymerase were performed by a modification of the procedure of Kuhlman et al., 2004 [Kuhlman, P., Duff, H. & Galant, A. (2004) A fluorescence-based assay for multisubunit DNA-dependent RNA polymerases. Anal. Biochem. 324, 183-190]. Reaction mixtures contained (20 μl): 0-100 nM test compound, 75 nM E. coli RNA polymerase σ^70holoenzyme, 20 nM 384 bp DNA fragment containing the bacteriophage T4 N25 promoter, 100 μM ATP, 100 μM GTP, 100 μM UTP, 100 μM CTP, 50 mM Tris-HCl, pH 8.0, 100 mM KCl, 10 mM MgCl2, 1 mM DTT, 10 μg/ml bovine serum albumin, and 5.5% glycerol. Reaction components other than DNA and NTPs were pre-incubated for 10 min at 37° C. Reactions were carried out by addition of DNA and incubation for 5 min at 37° C., followed by addition of NTPs and incubation for 60 min at 37° C. DNA was removed by addition of 1 μl 5 mM CaCl2 and 2 U DNaseI (Ambion, Inc.), followed by incubation for 90 min at 37° C. RNA was quantified by addition of 100 μl RiboGreen RNA Quantitation Reagent (Invitrogen, Inc.; 1:500 dilution in Tris-HCl, pH 8.0, 1 mM EDTA), followed by incubation for 10 min at 25° C., followed by measurement of fluorescence intensity [excitation wavelength=485 nm and emission wavelength=535 nm; QuantaMaster QM1 spectrofluorometer (PTI, Inc.)]. IC50 is defined as the concentration of inhibitor resulting in 50% inhibition of RNA polymerase activity.

Series [5] concerns Mycobacterium tuberculosis H37Rv. The series is described as follows: Inhibition of growth of Mycobacterium tuberculosis (microplate Alamar Blue assay). It is filed as cell-based. Particulars: read-out: in vitro antibacterial activity M. tuberculosis H37Rv MIC. (Alamar Blue is a resazurin reagent that responds to reducing activity.)
For series [6], the system named is Staphylococcus aureus ATCC 12600. Briefly: Inhibition of growth of Staphylococcus aureus (spiral gradient endpoint assay). It is filed as cell-based. Particulars: ATCC12600, spiral gradient endpoint assay, 16 h at 37° C., read-out: in vitro antibacterial activity S. aureus ATCC 12600 MIC. From the text: Minimum inhibitory concentrations (MICs) for Staphylococcus aureus ATCC 12600 were quantified using spiral gradient endpoint assays, essentially as described [Wallace, A. and Corkill, J. (1989) Application of the spiral plating method to study antimicrobial action. J. Microbiol. Meths. 10, 303-310; Paton, J., Holt, A., and Bywater, M. (1990) Measurement of MICs of antibacterial agents by spiral gradient endpoint compared with conventional dilution methods. Int. J. Exp. Clin. Chemother. 3, 31-38; Schalkowsky S. (1994) Measures of susceptibility from a spiral gradient of drug concentrations. Adv. Exp. Med. Biol. 349, 107-120]. Assays employed exponential-gradient plates containing 150 mm×4 mm Mueller-Hinton II cation-adjusted agar and 0.4-100 μg/ml of test compound. Plates were prepared using an Autoplate 4000 spiral plater (Spiral Biotech, Inc.). Saturated overnight cultures were swabbed radially onto plates, and plates were incubated for 16 h at 37° C. For each culture, the streak length was measured using a clear plastic template (Spiral Biotech, Inc.), the test-compound concentration at the streak endpoint was calculated using the program SGE (Spiral Biotech, Inc.), and the MIC was defined as the calculated test-compound concentration at the streak endpoint.

Values after ≈ are worked out from the molar mass of the structure shown.

Chain of E. coli RNA polymerase σ70 holoenzyme (P0A8V2 whole entry, the tested form may be a part): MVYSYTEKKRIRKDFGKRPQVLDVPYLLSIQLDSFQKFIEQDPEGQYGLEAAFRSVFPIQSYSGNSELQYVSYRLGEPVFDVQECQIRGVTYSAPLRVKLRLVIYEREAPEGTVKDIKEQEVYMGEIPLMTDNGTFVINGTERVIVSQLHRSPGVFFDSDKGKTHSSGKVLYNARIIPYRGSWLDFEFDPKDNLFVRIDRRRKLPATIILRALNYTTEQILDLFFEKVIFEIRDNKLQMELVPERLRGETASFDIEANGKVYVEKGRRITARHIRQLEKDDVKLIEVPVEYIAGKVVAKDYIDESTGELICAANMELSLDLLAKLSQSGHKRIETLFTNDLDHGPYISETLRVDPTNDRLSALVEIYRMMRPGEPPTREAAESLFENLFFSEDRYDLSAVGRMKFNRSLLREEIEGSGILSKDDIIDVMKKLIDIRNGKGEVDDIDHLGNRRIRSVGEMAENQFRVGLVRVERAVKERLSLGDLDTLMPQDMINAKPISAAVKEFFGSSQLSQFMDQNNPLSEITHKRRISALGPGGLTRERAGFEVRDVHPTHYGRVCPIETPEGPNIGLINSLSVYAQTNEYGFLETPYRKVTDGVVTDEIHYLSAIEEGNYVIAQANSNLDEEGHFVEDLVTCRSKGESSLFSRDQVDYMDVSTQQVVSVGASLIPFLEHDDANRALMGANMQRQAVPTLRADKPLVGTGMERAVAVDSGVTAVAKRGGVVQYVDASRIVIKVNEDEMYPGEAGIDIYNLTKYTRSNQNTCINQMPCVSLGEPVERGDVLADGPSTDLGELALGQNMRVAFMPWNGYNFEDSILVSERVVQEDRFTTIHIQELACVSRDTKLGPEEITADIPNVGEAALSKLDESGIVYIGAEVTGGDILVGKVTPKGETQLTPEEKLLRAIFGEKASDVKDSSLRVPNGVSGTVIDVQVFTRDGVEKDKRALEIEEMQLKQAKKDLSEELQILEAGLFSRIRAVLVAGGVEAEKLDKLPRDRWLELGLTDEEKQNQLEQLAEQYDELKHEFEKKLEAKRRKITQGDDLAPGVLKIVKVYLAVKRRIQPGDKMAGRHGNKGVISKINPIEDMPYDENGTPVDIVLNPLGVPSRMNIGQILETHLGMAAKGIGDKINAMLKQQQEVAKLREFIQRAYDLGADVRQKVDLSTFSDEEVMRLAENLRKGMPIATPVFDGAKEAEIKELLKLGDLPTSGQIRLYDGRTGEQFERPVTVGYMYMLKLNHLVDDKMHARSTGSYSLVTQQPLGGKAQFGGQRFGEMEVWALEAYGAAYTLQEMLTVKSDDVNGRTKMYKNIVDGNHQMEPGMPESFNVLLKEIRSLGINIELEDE
Chain of E. coli RNA polymerase σ70 holoenzyme (P0A8T7 whole entry, the tested form may be a part): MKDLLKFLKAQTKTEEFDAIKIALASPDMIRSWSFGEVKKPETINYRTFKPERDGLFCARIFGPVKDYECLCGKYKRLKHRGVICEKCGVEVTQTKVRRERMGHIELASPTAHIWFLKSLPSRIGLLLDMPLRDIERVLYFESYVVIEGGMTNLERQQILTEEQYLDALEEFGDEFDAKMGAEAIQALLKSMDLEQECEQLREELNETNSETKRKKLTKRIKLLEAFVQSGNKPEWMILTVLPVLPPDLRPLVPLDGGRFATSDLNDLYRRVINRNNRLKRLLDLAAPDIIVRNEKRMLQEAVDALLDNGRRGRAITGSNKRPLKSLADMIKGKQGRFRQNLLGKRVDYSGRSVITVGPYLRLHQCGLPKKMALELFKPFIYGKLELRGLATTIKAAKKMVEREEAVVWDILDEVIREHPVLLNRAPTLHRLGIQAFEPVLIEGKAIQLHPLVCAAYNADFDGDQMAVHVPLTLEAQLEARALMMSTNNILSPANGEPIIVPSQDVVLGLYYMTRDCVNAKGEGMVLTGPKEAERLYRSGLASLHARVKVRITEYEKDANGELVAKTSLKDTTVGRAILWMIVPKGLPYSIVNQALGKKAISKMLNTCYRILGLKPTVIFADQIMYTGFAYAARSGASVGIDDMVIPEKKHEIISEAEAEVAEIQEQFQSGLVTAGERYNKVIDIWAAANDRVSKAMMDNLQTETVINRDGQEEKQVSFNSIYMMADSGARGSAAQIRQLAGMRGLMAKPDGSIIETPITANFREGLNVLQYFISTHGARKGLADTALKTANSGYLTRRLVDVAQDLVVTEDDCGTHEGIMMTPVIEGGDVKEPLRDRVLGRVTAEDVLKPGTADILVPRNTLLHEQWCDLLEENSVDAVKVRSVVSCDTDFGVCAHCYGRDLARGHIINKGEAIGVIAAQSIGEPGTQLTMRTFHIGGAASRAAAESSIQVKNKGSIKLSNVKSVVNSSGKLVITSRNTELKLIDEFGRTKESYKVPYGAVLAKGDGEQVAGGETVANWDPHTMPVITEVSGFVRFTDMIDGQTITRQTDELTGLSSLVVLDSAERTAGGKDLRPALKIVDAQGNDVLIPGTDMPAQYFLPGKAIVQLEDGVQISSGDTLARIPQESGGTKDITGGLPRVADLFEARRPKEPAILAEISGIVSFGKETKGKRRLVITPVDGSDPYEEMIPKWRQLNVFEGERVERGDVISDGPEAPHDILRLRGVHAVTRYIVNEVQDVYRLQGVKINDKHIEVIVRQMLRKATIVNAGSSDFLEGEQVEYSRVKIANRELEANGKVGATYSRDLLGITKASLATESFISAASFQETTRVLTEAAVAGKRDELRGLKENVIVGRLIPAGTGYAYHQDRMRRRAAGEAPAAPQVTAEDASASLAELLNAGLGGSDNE
Chain of E. coli RNA polymerase σ70 holoenzyme (P0A7Z4 whole entry partner, the tested form may be a part): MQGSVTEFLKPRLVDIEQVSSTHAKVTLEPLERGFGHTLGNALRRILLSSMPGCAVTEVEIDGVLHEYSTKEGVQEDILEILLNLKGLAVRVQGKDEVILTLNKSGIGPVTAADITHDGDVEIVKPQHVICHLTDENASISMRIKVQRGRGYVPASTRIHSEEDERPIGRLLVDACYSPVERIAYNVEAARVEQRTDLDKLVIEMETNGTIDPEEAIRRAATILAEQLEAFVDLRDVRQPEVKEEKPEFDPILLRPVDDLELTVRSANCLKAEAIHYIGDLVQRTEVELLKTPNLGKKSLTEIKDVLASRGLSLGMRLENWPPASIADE
Chain of E. coli RNA polymerase σ70 holoenzyme (P0A800 2-91 partner limits assumed): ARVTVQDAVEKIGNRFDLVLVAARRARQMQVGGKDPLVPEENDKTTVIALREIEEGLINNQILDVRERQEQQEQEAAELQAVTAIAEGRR
Chain of E. coli RNA polymerase σ70 holoenzyme (P00579 whole entry partner, the tested form may be a part): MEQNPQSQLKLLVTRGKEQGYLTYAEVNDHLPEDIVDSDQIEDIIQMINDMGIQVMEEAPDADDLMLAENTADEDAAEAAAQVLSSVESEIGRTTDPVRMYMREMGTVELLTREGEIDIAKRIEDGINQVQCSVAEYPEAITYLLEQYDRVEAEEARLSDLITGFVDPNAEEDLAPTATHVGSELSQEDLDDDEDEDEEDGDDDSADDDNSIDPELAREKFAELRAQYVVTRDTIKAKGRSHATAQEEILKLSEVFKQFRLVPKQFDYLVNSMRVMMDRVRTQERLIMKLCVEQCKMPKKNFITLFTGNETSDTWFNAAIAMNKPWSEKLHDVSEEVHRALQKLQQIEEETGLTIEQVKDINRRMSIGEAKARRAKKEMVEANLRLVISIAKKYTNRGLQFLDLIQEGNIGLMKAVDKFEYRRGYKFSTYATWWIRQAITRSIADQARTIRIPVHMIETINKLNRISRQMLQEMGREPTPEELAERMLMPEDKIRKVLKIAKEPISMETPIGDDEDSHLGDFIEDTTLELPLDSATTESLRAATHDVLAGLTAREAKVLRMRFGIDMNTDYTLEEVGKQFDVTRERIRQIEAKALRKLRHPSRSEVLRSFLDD

Turning to `[2H]C([2H])([2H])OC(=O)N/C=C/CCCc1cc(O)c(C(=O)/C(C)=C/c2cnc(Oc3ccc(F)c(Cl)c3)s2)c(=O)o1` [Example 14], the “mouse liver microsome t0.5” value in series [1] was 65 min. Also, the “human liver microsome t0.5” value in series [2] is reported as 21 min. Moreover, the “plasma t0.5” value in series [3] came out at 1.8 h. Besides, the IC50 in series [4] was found to be 2.9 nM. In addition, the MIC in series [5] worked out at 0.78 µg/mL (≈ 1.41 µM); in series [6], 0.19 µg/mL (≈ 0.344 µM).
